Experimental data from patent US8741954B2, “Synergistic enhancement of calcium propionate” (ViraTox, L.L.C., priority 2007, dated 2014).

Columns and labels:
[1] = tested on: suspension of fungal spores of Chaetomium globosum ATCC #6205, Aspergillus niger ATCC #6275 and Aspergillus terreus ATCC #10690; assay: Disk diffusion method of determining susceptibility of fungi (developed from the Kirby-Bauer method); type: cell-based
Experimental: A disk diffusion method of determining susceptibility of fungi to Maquat 2525M 50% was developed from the Kirby-Bauer Bactericidal Disk Diffusion Method. […] This method was utilized as a screening method to achieve a rapid means of fungal inhibition after 5 days of incubation.
The inoculum was composed of a suspension of fungal spores harvested from one week cultures of ATCC #6205-Chaetomium globosum; ATCC #6275-Aspergillus niger; and, ATCC #10690-Aspergillus terreus. Once the plates were seeded with inoculum, DIFCO Concentration Disks (¼″) were impregnated with a 0.5% solution of Maquat 2525M 50%, allowed to air dry in sterile petri dishes and placed at equidistant locations on each plate. At the end of the five day incubation at 30° C., 5 plates containing four disks each were examined visually and microscopically.

[2] = tested on: Aspergillus niger (ATCC #6275), Chaetomium globosum (ATCC #6205) and Aspergillus terreus (ATCC #10690) suspensions; assay: TAPPI T 487 pm-99 fungal resistance of treated paper; type: cell-based; settings: treated Whatman paper coupons, 28° C., 21 day test, observed weekly
Experimental: This method is used to determine the resistance of paper and paperboard to fungal growth in ideally suited controlled conditions of light, temperature, moisture, and food supply. Treated 50 mm test coupons of paper are placed on a surface of test agar, flooded with a test inoculum of fungal spores, and incubated to determine fungal resistance. The rating that is provided follows an established protocol to determine the degree of mold growth on a rating scale reported as 1) not fungal resistant; 2) moderately fungal resistant; and 3) resistant.
Challenges of treated porous surfaces, represented by selected samples of untreated paper product specified as Whatman filter paper #4 and paper product specified as Whatman filter paper #4 treated with a solution of fungicides, are exposed to designated fungal suspensions known to cause failure under certain use conditions. The test samples are prepared according to T 487 pm-99 by aseptically removing pre-sterilized 50 mm paper coupons, previously equilibrated to room temperature, and then placed in a controlled chamber at 28+/−1° C. (82.40 F) and 95%-98% RH. The chamber is fitted with a tray filled with a salt solution to maintain humidity control. The test ensues continuously for 21 days and samples are observed weekly. The panels are rated each week according to the appearance of fungal growth.
This series of tests according to the TAPPI T 487 pm-99 protocol were conducted with multiple specimens of treated and untreated (Control) paper substrates with the specified fungal species of Aspergillus niger (ATCC #6275), Chaetomium globosum (ATCC #6205), and Aspergillus terreus (ATCC #10690) suspensions. The suspensions of inoculum were harvested from 14 day potato dextrose agar cultures into sterile water, combining the culture suspensions from each fungal genus and adjusting to concentrations of 10^6/ml. Triplicate substrate samples were then prepared from sheets of cellulose fiber papers (Whatman) cut into 50 mm squares and steam sterilized. The sterilized paper coupons were immersed in a solution of each challenge solution, allowed to soak for ten minutes, removed and placed into aluminum drying trays in a drying oven for 24 hours at 67° C. The test papers were placed onto the surface of prepared agar plates containing mineral-salt agar as outlined in T 487 pm-99. Two plies of paper were treated as a single test specimen and were directly pipetted with 1 ml of fungal suspension on the surface of each test coupon. The plates were then inverted and placed into humid incubation chambers and incubated at 28° C.+/−1 C for 21 days. Observations for growth were conducted on successive weekly schedules as well as verification of test inocula to distinguish contaminants or naturally occurring molds from actual challenge organisms. Growth was defined as sporulating, hyphael appearances directly from the paper substrate. The following comparative table depicts the various solutions and resistance results: […]

SMILES	Resistance grade of specimens ([1]; DIFCO disks impregnated with solution (Maquat 0.5%, calcium propionate 2.5%, sodium carboxymethylcellulose 0.5%, cetylpyridinium chloride 0.125%), potato dextrose agar, 5 days at 30° C.)	Growth on disks, visual and microscopic examination ([1]; after the 5 day incubation period)	Days in Incubation [2] [days]	Resistance Grade [2]
CCC(=O)[O-].CCC(=O)[O-].[Ca+2] [calcium propionate]	No Resistance	occluded with profuse growth	8	Not resistant
CCC(=O)O [1.5% propionic acid, propionic acid]			9	Not resistant
CCCCCCCCCCCCCCCC[n+]1ccccc1 [1.25% cetylpyridinium chloride, cetylpyridinium chloride]			15	
c1ccc2[nH]c(-c3cscn3)nc2c1 [Thiabendazole (TBZ) 1.0% Merck AgVet, Thiabendazole]			17	Moderately resistant
